# Source: patent US9393271B2, “GHRH agonists for islet cell transplantation and function and the treatment of diabetes” (UNIVERSITY OF MIAMI, priority 2012, dated 2016)
# Non-standard residues stand in square brackets, D forms with d. Residues, ends and D or L forms follow the SMILES beside them. *: point of attachment. Phe(F5) = N[C@@H](Cc1c(F)c(F)c(F)c(F)c1F)C(=O)O; Desaminotyrosyl = O=C(CCc1ccc(O)cc1)*; NMeY = CN[C@@H](Cc1ccc(O)cc1)C(=O)O; Agmatine = N=C(N)NCCCCN*; Nle = CCCC[C@H](N)C(=O)O; Orn = NCCC[C@H](N)C(=O)O; dAbu = CC[C@@H](N)C(=O)O; Abu = CC[C@H](N)C(=O)O; GABA = NCCCC(=O)O
# Target: T1, GHRH receptor (human pituitary membrane homogenates) (Homo sapiens, UniProt Q02643)
# T1 sequence (Q02643 23-423): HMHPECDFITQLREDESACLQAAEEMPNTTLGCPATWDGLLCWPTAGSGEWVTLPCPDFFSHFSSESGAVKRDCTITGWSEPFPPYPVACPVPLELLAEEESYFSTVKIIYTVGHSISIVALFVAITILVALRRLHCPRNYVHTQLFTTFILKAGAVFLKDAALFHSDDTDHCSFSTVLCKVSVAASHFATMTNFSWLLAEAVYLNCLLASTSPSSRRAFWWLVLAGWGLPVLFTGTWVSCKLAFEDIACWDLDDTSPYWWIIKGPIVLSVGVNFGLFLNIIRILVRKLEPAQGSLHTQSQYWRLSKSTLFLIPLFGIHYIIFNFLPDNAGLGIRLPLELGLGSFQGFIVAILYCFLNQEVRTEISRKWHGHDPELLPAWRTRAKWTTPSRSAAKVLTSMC
# Assay: GHRH receptor binding, ligand competition with 125I-labeled JV-1-42 (Table 7)
# Parameters: Normal human pituitaries were purchased from the National Hormone and Peptide Program; tissue National Hormone and Peptide Program (A. F. Parlow, Harbor-UCLA Medical Center, Torrance, Calif.); host or cells: normal human pituitary, membrane fraction / homogenate
# Conditions: JI-38 = 1
row,Structure (SMILES),Relative affinitiy (Binding potency) vs JI-38
1,"CCCC[C@H](NC(=O)[C@@H](NC(=O)[C@H](CC(=O)O)NC(=O)[C@H](CCC(N)=O)NC(=O)[C@H](CC(C)C)NC(=O)[C@H](CC(C)C)NC(=O)[C@H](CCCN)NC(=O)[C@H](CCCNC(=N)N)NC(=O)[C@H](C)NC(=O)[C@H](CO)NC(=O)[C@H](CC(C)C)NC(=O)[C@H](CCC(N)=O)NC(=O)[C@H](CC)NC(=O)[C@H](CC(C)C)NC(=O)[C@@H](NC(=O)[C@H](CCCN)NC(=O)[C@H](CCCNC(=N)N)NC(=O)[C@H](Cc1ccc(O)cc1)NC(=O)[C@H](CO)NC(=O)[C@H](CC(N)=O)NC(=O)[C@@H](NC(=O)[C@H](Cc1ccccc1)NC(=O)[C@@H](NC(=O)[C@H](C)NC(=O)[C@H](CC(=O)O)NC(=O)[C@@H](CC)NC(=O)CCc1ccc(O)cc1)[C@@H](C)CC)[C@@H](C)O)C(C)C)[C@@H](C)CC)C(=O)N[C@@H](CO)C(=O)N[C@@H](CCCNC(=N)N)C(=O)NCCCC(N)=O [Peptide P-25504, [Dat^1, D-Abu^2, Orn^12, Abu^15, Orn^21, Nle^27, Gab^30]hGHRH(1-30)NH2] (Desaminotyrosyl-[dAbu]DAIFTNSYR[Orn]VL[Abu]QLSAR[Orn]LLQDI[Nle]SR[GABA]-NH2)",3.02
2,"CCCC[C@H](NC(=O)[C@@H](NC(=O)[C@H](CC(=O)O)NC(=O)[C@H](CCC(N)=O)NC(=O)[C@H](CC(C)C)NC(=O)[C@H](CC(C)C)NC(=O)[C@H](CCCN)NC(=O)[C@H](CCCNC(=N)N)NC(=O)[C@H](C)NC(=O)[C@H](CO)NC(=O)[C@H](CC(C)C)NC(=O)[C@H](CCC(N)=O)NC(=O)[C@H](CC)NC(=O)[C@H](CC(C)C)NC(=O)[C@@H](NC(=O)[C@H](CCCN)NC(=O)[C@H](CCCNC(=N)N)NC(=O)[C@H](Cc1ccc(O)cc1)NC(=O)[C@H](CO)NC(=O)[C@H](CC(N)=O)NC(=O)[C@@H](NC(=O)[C@H](Cc1ccccc1)NC(=O)[C@@H](NC(=O)[C@H](C)NC(=O)[C@H](CC(=O)O)NC(=O)[C@H](C)NC(=O)[C@H](Cc1ccc(O)cc1)NC)[C@@H](C)CC)[C@@H](C)O)C(C)C)[C@@H](C)CC)C(=O)N[C@@H](CO)C(=O)N[C@@H](CCCNC(=N)N)C(=O)NCCCC(=O)NC [Peptide P-27415, [N—Me-Tyr^1, Orn^12, Abu^15, Orn^21, Nle^27, Gab^30]hGHRH(1-30)NH—CH3] (H-[NMeY]ADAIFTNSYR[Orn]VL[Abu]QLSAR[Orn]LLQDI[Nle]SR[GABA]-NHMe)",1.44
3,"CCCC[C@H](NC(=O)[C@@H](NC(=O)[C@H](CC(=O)O)NC(=O)[C@H](CCC(N)=O)NC(=O)[C@H](CC(C)C)NC(=O)[C@H](CC(C)C)NC(=O)[C@H](CCCN)NC(=O)[C@H](CCCNC(=N)N)NC(=O)[C@H](C)NC(=O)[C@H](CO)NC(=O)[C@H](CC(C)C)NC(=O)[C@H](CCC(N)=O)NC(=O)[C@H](CC)NC(=O)[C@H](CC(C)C)NC(=O)[C@@H](NC(=O)[C@H](CCCN)NC(=O)[C@H](CCCNC(=N)N)NC(=O)[C@H](Cc1ccc(O)cc1)NC(=O)[C@H](CO)NC(=O)[C@H](CC(N)=O)NC(=O)[C@@H](NC(=O)[C@H](Cc1c(F)c(F)c(F)c(F)c1F)NC(=O)[C@@H](NC(=O)[C@H](C)NC(=O)[C@H](CC(=O)O)NC(=O)[C@@H](C)NC(=O)[C@H](Cc1ccc(O)cc1)NC)[C@@H](C)CC)[C@@H](C)O)C(C)C)[C@@H](C)CC)C(=O)N[C@@H](CC(=O)O)C(=O)NCCCCNC(=N)N [Peptide P-20359, [N—Me-Tyr^1, D-Ala^2, Fpa5^6, Orn^12, Abu^15, Orn^21, Nle^27, Asp^28, Agm^29]hGHRH(1-29)] (H-[NMeY][dA]DAI[Phe(F5)]TNSYR[Orn]VL[Abu]QLSAR[Orn]LLQDI[Nle]D-Agmatine)",1.43
4,"CCCC[C@H](NC(=O)[C@@H](NC(=O)[C@H](CC(=O)O)NC(=O)[C@H](CCC(N)=O)NC(=O)[C@H](CC(C)C)NC(=O)[C@H](CC(C)C)NC(=O)[C@H](CCCN)NC(=O)[C@H](CCCNC(=N)N)NC(=O)[C@H](C)NC(=O)[C@H](CO)NC(=O)[C@H](CC(C)C)NC(=O)[C@H](CCC(N)=O)NC(=O)[C@H](CC)NC(=O)[C@H](CC(C)C)NC(=O)[C@@H](NC(=O)[C@H](CCCN)NC(=O)[C@H](CCCNC(=N)N)NC(=O)[C@H](Cc1ccc(O)cc1)NC(=O)[C@H](CO)NC(=O)[C@@H](NC(=O)[C@@H](NC(=O)[C@H](Cc1ccccc1)NC(=O)[C@@H](NC(=O)[C@H](C)NC(=O)[C@H](CC(=O)O)NC(=O)[C@@H](C)NC(=O)[C@H](Cc1ccc(O)cc1)NC)[C@@H](C)CC)[C@@H](C)O)[C@@H](C)O)C(C)C)[C@@H](C)CC)C(=O)N[C@@H](CC(=O)O)C(=O)N[C@@H](CCCNC(=N)N)C(=O)NC [Peptide P-27410, [N—Me-Tyr^1, D-Ala^2, Thr^8, Orn^12, Abu^15, Orn^21, Nle^27, Asp^28]hGHRH(1-29)NH—CH3] (H-[NMeY][dA]DAIFTTSYR[Orn]VL[Abu]QLSAR[Orn]LLQDI[Nle]DR-NHMe)",5.24
5,"CCCC[C@H](NC(=O)[C@@H](NC(=O)[C@H](CC(=O)O)NC(=O)[C@H](CCC(N)=O)NC(=O)[C@H](CC(C)C)NC(=O)[C@H](CC(C)C)NC(=O)[C@H](CCCN)NC(=O)[C@H](CCCNC(=N)N)NC(=O)[C@H](C)NC(=O)[C@H](CO)NC(=O)[C@H](CC(C)C)NC(=O)[C@H](CCC(N)=O)NC(=O)[C@H](CC)NC(=O)[C@H](CC(C)C)NC(=O)[C@@H](NC(=O)[C@H](CCCN)NC(=O)[C@H](CCCNC(=N)N)NC(=O)[C@H](Cc1ccc(O)cc1)NC(=O)[C@H](CO)NC(=O)[C@H](CC(N)=O)NC(=O)[C@@H](NC(=O)[C@H](Cc1ccccc1)NC(=O)[C@@H](NC(=O)[C@H](C)NC(=O)[C@H](CC(=O)O)NC(=O)[C@H](CC)NC(=O)[C@H](Cc1ccc(O)cc1)NC)[C@@H](C)CC)[C@@H](C)O)C(C)C)[C@@H](C)CC)C(=O)N[C@@H](CO)C(=O)N[C@@H](CCCNC(=N)N)C(=O)NCCCC(N)=O [Peptide P-25503, [N—Me-Tyr^1, Abu^2, Orn^12, Abu^15, Orn^21, Nle^27, Gab^30]hGHRH(1-30)NH2] (H-[NMeY][Abu]DAIFTNSYR[Orn]VL[Abu]QLSAR[Orn]LLQDI[Nle]SR[GABA]-NH2)",3.67

# Other lines, results leading:
row,Relative affinitiy (Binding potency) vs JI-38,Structure (SMILES)
1,7.91,"CCCC[C@H](NC(=O)[C@@H](NC(=O)[C@H](CC(=O)O)NC(=O)[C@H](CCC(N)=O)NC(=O)[C@H](CC(C)C)NC(=O)[C@H](CC(C)C)NC(=O)[C@H](CCCN)NC(=O)[C@H](CCCNC(=N)N)NC(=O)[C@H](C)NC(=O)[C@H](CO)NC(=O)[C@H](CC(C)C)NC(=O)[C@H](CCC(N)=O)NC(=O)[C@H](CC)NC(=O)[C@H](CC(C)C)NC(=O)[C@@H](NC(=O)[C@H](CCCN)NC(=O)[C@H](CCCNC(=N)N)NC(=O)[C@H](Cc1ccc(O)cc1)NC(=O)[C@H](CO)NC(=O)[C@H](CCC(N)=O)NC(=O)[C@@H](NC(=O)[C@H](Cc1ccccc1)NC(=O)[C@@H](NC(=O)[C@H](C)NC(=O)[C@H](CC(=O)O)NC(=O)[C@@H](C)NC(=O)CCc1ccc(O)cc1)[C@@H](C)CC)[C@@H](C)O)C(C)C)[C@@H](C)CC)C(=O)N[C@@H](CC(=O)O)C(=O)N[C@@H](CCCNC(=N)N)C(=O)NC [Peptide P-27408, [Dat^1, D-Ala^2, Gln^8, Orn^12, Abu^15, Orn^21, Nle^27, Asp^28]hGHRH(1-30)NH—CH3] (Desaminotyrosyl-[dA]DAIFTQSYR[Orn]VL[Abu]QLSAR[Orn]LLQDI[Nle]DR-NHMe)"
2,2.79,"CCCC[C@H](NC(=O)[C@@H](NC(=O)[C@H](CC(=O)O)NC(=O)[C@H](CCC(N)=O)NC(=O)[C@H](CC(C)C)NC(=O)[C@H](CC(C)C)NC(=O)[C@H](CCCN)NC(=O)[C@H](CCCNC(=N)N)NC(=O)[C@H](C)NC(=O)[C@H](CO)NC(=O)[C@H](CC(C)C)NC(=O)[C@H](CCC(N)=O)NC(=O)[C@H](CC)NC(=O)[C@H](CC(C)C)NC(=O)[C@@H](NC(=O)[C@H](CCCN)NC(=O)[C@H](CCCNC(=N)N)NC(=O)[C@H](Cc1ccc(O)cc1)NC(=O)[C@H](CO)NC(=O)[C@H](CC(N)=O)NC(=O)[C@@H](NC(=O)[C@H](Cc1c(F)c(F)c(F)c(F)c1F)NC(=O)[C@@H](NC(=O)[C@H](C)NC(=O)[C@H](CC(=O)O)NC(=O)[C@@H](C)NC(=O)[C@H](Cc1ccc(O)cc1)NC)[C@@H](C)CC)[C@@H](C)O)C(C)C)[C@@H](C)CC)C(=O)N[C@@H](CO)C(=O)N[C@@H](CCCNC(=N)N)C(=O)NCCCC(=O)NC [Peptide P-27414, [N—Me-Tyr^1, D-Ala^2, Fpa5^6, Orn^12, Abu^15, Orn^21, Nle^27, Gab^30]hGHRH(1-30)NH—CH3] (H-[NMeY][dA]DAI[Phe(F5)]TNSYR[Orn]VL[Abu]QLSAR[Orn]LLQDI[Nle]SR[GABA]-NHMe)"
3,1.59,"CCCC[C@H](NC(=O)[C@@H](NC(=O)[C@H](CC(=O)O)NC(=O)[C@H](CCC(N)=O)NC(=O)[C@H](CC(C)C)NC(=O)[C@H](CC(C)C)NC(=O)[C@H](CCCN)NC(=O)[C@H](CCCNC(=N)N)NC(=O)[C@H](C)NC(=O)[C@H](CO)NC(=O)[C@H](CC(C)C)NC(=O)[C@H](CCC(N)=O)NC(=O)[C@H](CC)NC(=O)[C@H](CC(C)C)NC(=O)[C@@H](NC(=O)[C@H](CCCN)NC(=O)[C@H](CCCNC(=N)N)NC(=O)[C@H](Cc1ccc(O)cc1)NC(=O)[C@H](CO)NC(=O)[C@H](CCC(N)=O)NC(=O)[C@@H](NC(=O)[C@H](Cc1ccccc1)NC(=O)[C@@H](NC(=O)[C@H](C)NC(=O)[C@H](CC(=O)O)NC(=O)[C@@H](C)NC(=O)CCc1ccc(O)cc1)[C@@H](C)CC)[C@@H](C)O)C(C)C)[C@@H](C)CC)C(=O)N[C@@H](CC(=O)O)C(=O)N[C@H](CCCNC(=N)N)C(=O)NC [Peptide P-27401, [Dat^1, D-Ala^2, Gln^8, Orn^12, Abu^15, Orn^21, Nle^27, Asp^28, D-Arg^29]hGHRH(1-29)NH—CH3] (Desaminotyrosyl-[dA]DAIFTQSYR[Orn]VL[Abu]QLSAR[Orn]LLQDI[Nle]D[dR]-NHMe)"
